Key:
[1] = target: human D2 dopamine receptors (Homo sapiens (Human), UniProt P14416); test: Whole Cell Adenylyl Cyclase Assay, D2; type: cell-based; conditions: inhibition of forskolin (100 μM) stimulated cAMP, normalized to quinpirole; compound conc ≥10× Ki (per compound); mean ± S.E.M.
[2] = target: human D3 dopamine receptor (Homo sapiens (Human), UniProt P35462); test: Whole Cell Adenylyl Cyclase Assay, D3; type: cell-based; conditions: inhibition of forskolin (100 μM) stimulated cAMP, normalized to quinpirole; compound conc ≥10× Ki (per compound); mean ± S.E.M.
human D3 dopamine receptor, sequence (P35462 whole entry): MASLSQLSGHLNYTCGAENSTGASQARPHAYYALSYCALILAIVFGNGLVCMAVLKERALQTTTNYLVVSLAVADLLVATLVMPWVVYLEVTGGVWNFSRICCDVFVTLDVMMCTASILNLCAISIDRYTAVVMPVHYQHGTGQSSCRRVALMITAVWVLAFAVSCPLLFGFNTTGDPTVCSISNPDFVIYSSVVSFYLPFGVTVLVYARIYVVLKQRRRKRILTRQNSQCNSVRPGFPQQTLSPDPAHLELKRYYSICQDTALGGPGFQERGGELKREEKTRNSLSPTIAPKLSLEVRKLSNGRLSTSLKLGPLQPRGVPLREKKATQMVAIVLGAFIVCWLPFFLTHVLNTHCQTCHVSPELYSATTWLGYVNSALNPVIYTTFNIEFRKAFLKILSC

Long Evans rats = test: Cocaine self-administration under PR schedule of reinforcement; type: in vivo, rat; conditions: 3.75, 7.5 or 15 mg/kg intraperitoneally 10 minutes prior to session; compared to vehicle, ps<0.05; cocaine 0.375, 0.75, […]
Experimental: These studies were performed using Long Evans rats using standard protocols (Quinlan M. G. et al. Psychopharmacol. 2004, 175, 53-59; Ranaldi, R. et al. Behav. Pharmacol. 2011, 22, 347-353). Cocaine self-administration sessions were conducted in sixteen operant chambers; eight measuring 30×22×27 cm (l×w×h) and the other eight measuring 26×26×30 cm (l×w×h). Each chamber was situated inside a sound-attenuating box and was equipped with two retractable levers, a white light above each lever, and a tether. Polyethylene tubing, covered by the tether, connected the animal, through a fluid swivel, to a syringe in a syringe pump (Razel, 3.33 rpm). Cocaine was dissolved in 0.9% saline to achieve doses of 0.375, 0.75 and 1.5 mg/kg/injection. […] Each animal was tested with one dose of the D3 antagonist, randomly determined, at as many of the three cocaine doses as possible. After a particular test the animal's cocaine dose was changed to another one (randomly determined) and its baseline BP on the new dose was established. BP during the test session was expressed as the percentage of the average BP obtained during the last three baseline sessions. Percentage of baseline BP and final ratio (i.e. the number of lever presses required for the BP infusion) were analyzed using separate two-way analyses of variance (ANOVAs) with dose of 113 and dose of cocaine as between-groups factors. […]

human D2 dopamine receptors, sequence (P14416 whole entry): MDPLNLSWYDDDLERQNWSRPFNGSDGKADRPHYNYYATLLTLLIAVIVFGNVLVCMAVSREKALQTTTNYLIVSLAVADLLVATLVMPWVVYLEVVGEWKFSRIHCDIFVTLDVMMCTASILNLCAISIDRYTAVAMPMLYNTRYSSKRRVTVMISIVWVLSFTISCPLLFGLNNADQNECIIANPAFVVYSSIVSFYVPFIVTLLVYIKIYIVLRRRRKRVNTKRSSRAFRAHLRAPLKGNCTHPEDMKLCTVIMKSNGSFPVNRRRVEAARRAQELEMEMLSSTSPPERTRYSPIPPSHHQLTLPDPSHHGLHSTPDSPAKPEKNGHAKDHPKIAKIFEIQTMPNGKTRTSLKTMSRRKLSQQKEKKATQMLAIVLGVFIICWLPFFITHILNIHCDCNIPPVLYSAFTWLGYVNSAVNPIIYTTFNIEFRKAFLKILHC

- D2 Cyclase % Inhibition Normalized [1]: −1.9 ± 13.3%
- D3 Cyclase % Inhibition Normalized [2]: 27.7 ± 7.0%
SMILES: CC(C)(C)c1nc(N2CCN(CCCCNC(=O)c3cn4ccccc4n3)CC2)cc(C(F)(F)F)n1 [Compound 113, N-(4-(4-(2-(tert-Butyl)-6-(trifluoromethyl)pyrimidin-4-yl)piperazin-1-yl)butyl)imidazo[1,2-a]pyridine-2-carboxamide]
- percentage of baseline BPs for cocaine under PR schedule (Long Evans rats): significant reductions in the percentage of baseline BPs
